Our source for the IC50 values is patent publication US8471005B2 (Cephalon, Inc., priority 2008, dated 2013).

Molecules are shown by their SMILES. Read-outs that look alike come from different tables or passages of the source.

The target in one experiment is T1, JAK2 (Homo sapiens, UniProt O60674).
T1 construct: host or cells: baculovirus expression system
Nature of the experiment: Recombinant Human JAK2 Kinase Assay (TRF). The note with it: read-out: JAK2 Potency. Type of experiment: biochemical. The method, boiled down:
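Kinase activity of baculovirus-expressed JAK2 is followed on a surface-immobilised biotinylated peptide, with the reaction run for 20 min at room temperature in buffer containing 0.2 μM ATP and manganese. Phosphorylation is read with Eu-N1 PY100 antibody.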

For another experiment, the target named is T2, ALK (Homo sapiens, UniProt Q9UM73).
T2 construct: host or cells: baculovirus expression system
T2 sequence (Q9UM73 19-1620): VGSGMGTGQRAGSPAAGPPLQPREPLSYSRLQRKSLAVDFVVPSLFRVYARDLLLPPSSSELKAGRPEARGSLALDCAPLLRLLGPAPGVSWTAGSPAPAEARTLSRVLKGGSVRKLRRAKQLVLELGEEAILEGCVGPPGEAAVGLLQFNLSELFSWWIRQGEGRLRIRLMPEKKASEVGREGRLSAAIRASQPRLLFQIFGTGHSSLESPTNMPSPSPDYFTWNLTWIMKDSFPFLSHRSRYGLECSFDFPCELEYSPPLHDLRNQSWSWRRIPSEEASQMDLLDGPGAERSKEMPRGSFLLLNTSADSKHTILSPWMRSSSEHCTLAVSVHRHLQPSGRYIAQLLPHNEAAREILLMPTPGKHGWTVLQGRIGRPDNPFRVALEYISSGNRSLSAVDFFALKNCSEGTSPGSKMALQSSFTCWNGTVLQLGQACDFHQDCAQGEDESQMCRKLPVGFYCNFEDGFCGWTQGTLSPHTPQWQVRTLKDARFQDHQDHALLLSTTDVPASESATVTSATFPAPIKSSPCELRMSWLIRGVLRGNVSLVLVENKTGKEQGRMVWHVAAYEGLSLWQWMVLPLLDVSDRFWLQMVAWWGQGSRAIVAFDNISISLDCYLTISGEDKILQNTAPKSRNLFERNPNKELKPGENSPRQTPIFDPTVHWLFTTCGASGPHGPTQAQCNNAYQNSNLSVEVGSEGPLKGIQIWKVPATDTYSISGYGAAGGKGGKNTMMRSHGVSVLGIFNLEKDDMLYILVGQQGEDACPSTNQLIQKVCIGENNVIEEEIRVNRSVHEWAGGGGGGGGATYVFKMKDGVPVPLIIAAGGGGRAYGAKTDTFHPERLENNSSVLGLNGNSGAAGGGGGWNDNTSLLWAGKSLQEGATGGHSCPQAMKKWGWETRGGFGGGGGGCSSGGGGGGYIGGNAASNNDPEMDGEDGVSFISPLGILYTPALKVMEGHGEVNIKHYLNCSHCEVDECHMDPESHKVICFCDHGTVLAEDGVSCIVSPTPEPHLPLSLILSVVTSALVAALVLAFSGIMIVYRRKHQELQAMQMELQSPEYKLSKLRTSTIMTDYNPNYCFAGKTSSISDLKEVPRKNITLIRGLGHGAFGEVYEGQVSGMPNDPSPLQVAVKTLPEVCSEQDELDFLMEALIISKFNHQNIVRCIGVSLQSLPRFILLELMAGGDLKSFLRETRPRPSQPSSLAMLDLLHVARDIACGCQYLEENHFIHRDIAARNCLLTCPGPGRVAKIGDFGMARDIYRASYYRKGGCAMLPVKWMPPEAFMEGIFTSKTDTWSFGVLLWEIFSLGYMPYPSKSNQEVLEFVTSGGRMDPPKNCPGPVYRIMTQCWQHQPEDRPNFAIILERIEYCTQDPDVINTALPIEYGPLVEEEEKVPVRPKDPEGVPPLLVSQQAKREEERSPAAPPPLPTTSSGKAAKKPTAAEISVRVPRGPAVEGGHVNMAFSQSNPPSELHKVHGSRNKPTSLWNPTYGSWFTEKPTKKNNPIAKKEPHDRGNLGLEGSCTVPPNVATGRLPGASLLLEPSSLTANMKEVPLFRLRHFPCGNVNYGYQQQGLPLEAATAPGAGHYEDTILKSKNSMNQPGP
Kind of experiment: ALK Kinase Assay (ELISA/TRF, PLC-γ substrate). The format is biochemical. The note with it: read-out: ALK Potency. The gist of the method:
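First, plates are coated with substrate (phospholipase C-γ, 10 μg/mL, TBS). Next, 30 ng/ml ALK initiates phosphorylation for 15 min at 37° C. Then Eu-N1 PT66 antibody is added for detection, and a nonlinear dose-response fit of percent inhibition yields IC50.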
Background: An ELISA detects its analyte on a solid surface through an enzyme-linked reagent.

Where [1] appears, read: JAK2 kinase inhibition, 0.2 μM ATP.
Where [2] appears, read: ALK kinase inhibition, 1 μM ATP.

T1 sequence (O60674 whole entry): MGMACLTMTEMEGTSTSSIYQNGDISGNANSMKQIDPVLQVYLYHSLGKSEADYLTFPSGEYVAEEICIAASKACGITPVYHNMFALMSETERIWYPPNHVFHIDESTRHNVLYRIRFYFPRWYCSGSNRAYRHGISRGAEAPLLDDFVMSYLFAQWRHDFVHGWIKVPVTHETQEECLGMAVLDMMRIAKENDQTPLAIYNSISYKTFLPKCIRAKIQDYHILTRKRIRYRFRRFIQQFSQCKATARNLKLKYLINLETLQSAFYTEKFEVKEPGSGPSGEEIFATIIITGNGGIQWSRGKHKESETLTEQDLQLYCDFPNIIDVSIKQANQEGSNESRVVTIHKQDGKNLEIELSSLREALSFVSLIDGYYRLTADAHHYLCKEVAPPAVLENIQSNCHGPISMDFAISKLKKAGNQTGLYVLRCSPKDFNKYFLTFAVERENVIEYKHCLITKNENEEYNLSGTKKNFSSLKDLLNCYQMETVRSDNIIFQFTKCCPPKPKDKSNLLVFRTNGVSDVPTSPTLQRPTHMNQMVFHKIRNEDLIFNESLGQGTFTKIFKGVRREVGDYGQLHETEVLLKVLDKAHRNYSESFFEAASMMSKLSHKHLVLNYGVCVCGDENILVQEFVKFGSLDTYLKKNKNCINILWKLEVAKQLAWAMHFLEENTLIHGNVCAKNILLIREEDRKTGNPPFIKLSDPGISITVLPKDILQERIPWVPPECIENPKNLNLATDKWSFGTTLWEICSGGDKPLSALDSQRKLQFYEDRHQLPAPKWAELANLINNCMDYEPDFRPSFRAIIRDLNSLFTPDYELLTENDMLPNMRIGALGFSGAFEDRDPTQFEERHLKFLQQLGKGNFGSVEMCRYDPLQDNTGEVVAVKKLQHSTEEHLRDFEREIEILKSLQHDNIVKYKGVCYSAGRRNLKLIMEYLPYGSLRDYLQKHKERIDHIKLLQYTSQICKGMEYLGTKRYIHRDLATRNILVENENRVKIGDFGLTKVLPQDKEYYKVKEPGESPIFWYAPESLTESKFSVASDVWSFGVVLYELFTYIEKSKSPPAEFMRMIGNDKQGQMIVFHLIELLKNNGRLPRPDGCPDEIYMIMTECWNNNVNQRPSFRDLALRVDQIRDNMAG

As for `CC1(C)CCC(=O)Nc2cc(Nc3ncc4ccc(-c5ccc(S(C)(=O)=O)cc5)n4n3)ccc21` [Example 92, 8-[7-(4-Methanesulfonyl-phenyl)-pyrrolo[2,1-f][1,2,4]triazin-2-ylamino]-5,5-dimethyl-1,3,4,5-tetrahydro-benzo[b]azepin-2-one], the IC50 on JAK2 (JAK2 Kinase Inhibition) is under 100 nM; at ALK (ALK Kinase Inhibition) it was 1000 to 10000 nM.

As to `CN1CCOc2ccc(Nc3ncc4ccc(-c5ccccc5N(C)S(C)(=O)=O)n4n3)cc21` [Example 641, N-Methyl-N-{2-[2-(4-methyl-3,4-dihydro-2H-benzo[1,4]oxazin-6-ylamino)-pyrrolo[2,1-f][1,2,4]triazin-7-yl]-phenyl}methanesulfonamide], the figures for the IC50 on JAK2 (setting [1]) and at ALK (setting [2]) were under 100 nM and 100 to 1000 nM, respectively.

Take `COc1cc(CCN2CCN(C)CC2)ccc1Nc1ncc2ccc(-c3ccccc3OC)n2n1` [Example 488, {2-Methoxy-4-[2-(4-methyl-piperazin-1-yl)-ethyl]-phenyl}-[7-(2-methoxy-phenyl)-pyrrolo[2,1-f][1,2,4]triazin-2-yl]-amine]: the IC50 on JAK2 (setting [1]) is 100 to 1000 nM; on ALK (setting [2]), under 100 nM.

Turning to `COc1cc(CCN2CCOCC2)ccc1Nc1ncc2ccc(-c3ccccc3N(C)S(C)(=O)=O)n2n1` [Example 493, N-(2-{2-[2-Methoxy-4-(2-morpholin-4-yl-ethyl)-phenylamino]-pyrrolo[2,1-f][1,2,4]triazin-7-yl}-phenyl)-N-methyl-methanesulfonamide], the results for the IC50 on JAK2 (setting [1]) and at ALK (setting [2]) were 100 to 1000 nM and under 100 nM, respectively.

For `COc1ccc(-c2ccc3cnc(Nc4ccc(C5C(=O)N(C)CCN5C)cc4)nn23)cn1` (stereo not drawn) [Example 1072, 3-{4-[7-(6-Methoxy-pyridin-3-yl)-pyrrolo[2,1-f][1,2,4]triazin-2-ylamino]-phenyl}-1,4-dimethyl-piperazin-2-one], the IC50 is under 100 nM at JAK2 (setting [1]) and 1000 to 10000 nM at ALK (setting [2]).

Take `CS(=O)(=O)c1cccc(-c2ccc3cnc(Nc4ccc5[nH]c(CN6CCOCC6)nc5c4)nn23)c1` [Example 1537, [7-(3-Methanesulfonyl-phenyl)-pyrrolo[2,1-f][1,2,4]triazin-2-yl]-(2-morpholin-4-ylmethyl-1H-benzimidazol-5-yl)-amine]: the IC50 is under 100 nM at JAK2 (JAK2 Kinase Inhibition) and 1000 to 10000 nM at ALK (ALK Kinase Inhibition).

Regarding `CN1CCN(c2ccc(Nc3ncc4c(Br)cc(Br)n4n3)cc2)CC1` [Example 84, (5,7-Dibromo-pyrrolo[2,1-f][1,2,4]triazin-2-yl)-[4-(4-methyl-piperazin-1-yl)-phenyl]-amine], the IC50 at JAK2 (JAK2 Kinase Inhibition) is under 100 nM; on ALK (ALK Kinase Inhibition), 1000 to 10000 nM.

Turning to `CN1CCN(c2cccc(Nc3ncc4ccc(-c5cnn(C)c5)n4n3)c2)CC1` [Example 969, [3-(4-Methyl-piperazin-1-yl)-phenyl]-[7-(1-methyl-1H-pyrazol-4-yl)-pyrrolo[2,1-f][1,2,4]triazin-2-yl]-amine], the IC50 on JAK2 (setting [1]) was under 100 nM; at ALK (setting [2]), 1000 to 10000 nM.

For `CC(=O)N1CCCCc2ccc(Nc3ncc4ccc(-c5cccc(NS(C)(=O)=O)c5)n4n3)cc21` [Example 633, N-{3-[2-(1-Acetyl-2,3,4,5-tetrahydro-1H-benzo[b]azepin-8-ylamino)-pyrrolo[2,1-f][1,2,4]triazin-7-yl]-phenyl}methanesulfonamide], the IC50 is under 100 nM at JAK2 (setting [1]) and 1000 to 10000 nM at ALK (setting [2]).

Regarding `CC(C)(C)NS(=O)(=O)c1cccc(-c2ccc3cnc(Nc4ccc5nc(CO)[nH]c5c4)nn23)c1` [Example 1066, N-tert-Butyl-3-[2-(2-hydroxymethyl-3H-benzoimidazol-5-ylamino)-pyrrolo[2,1-f][1,2,4]triazin-7-yl]-benzenesulfonamide], the IC50 on JAK2 (setting [1]) is under 100 nM; on ALK (setting [2]) it was 1000 to 10000 nM.

Consider `CN1CCN(c2ccc(Nc3ncc4cc5ccccc5n4n3)cc2)CC1` [Example 263, [4-(4-Methyl-piperazin-1-yl)-phenyl]-[1,2,4]triazino[1,6-a]indol-2-yl-amine], for which the values for the IC50 at JAK2 (JAK2 Kinase Inhibition) and on ALK (ALK Kinase Inhibition) were under 100 nM and 100 to 1000 nM, respectively.

As for `Cn1cc(-c2ccc3cnc(Nc4ccc(C5CN(CC(N)=O)C5)cc4)nn23)cn1` [Example 585, 2-(3-{4-[7-(1-Methyl-1H-pyrazol-4-yl)-pyrrolo[2,1-f][1,2,4]triazin-2-ylamino]-phenyl}-azetidin-1-yl)-acetamide], the IC50 on JAK2 (setting [1]) was under 100 nM; on ALK (setting [2]) it was 100 to 1000 nM.

Take `COc1ccccc1-c1ccc2cnc(Nc3ccc(OC)c(N4CCOCC4)c3)nn12` [Example 394, (4-Methoxy-3-morpholin-4-yl-phenyl)-[7-(2-methoxy-phenyl)-pyrrolo[2,1-f][1,2,4]triazin-2-yl]-amine]: the IC50 at JAK2 (JAK2 Kinase Inhibition) and on ALK (ALK Kinase Inhibition) was under 100 nM each time.

On to `Cn1cc(-c2ccc3cnc(Nc4ccc5c(c4)NC(=O)C5)nn23)cn1` [Example 646, 6-[7-(1-Methyl-1H-pyrazol-4-yl)-pyrrolo[2,1-f][1,2,4]triazin-2-ylamino]-1,3-dihydro-indol-2-one], for which the IC50 at JAK2 (setting [1]) is under 100 nM; at ALK (setting [2]), 1000 to 10000 nM.

On to `CS(=O)(=O)c1ccc(-c2ccc3cnc(Nc4cccc(N5CCN(CCO)CC5)c4)nn23)cc1` [Example 181, 2-(4-{3-[7-(4-Methanesulfonyl-phenyl)-pyrrolo[2,1-f][1,2,4]triazin-2-ylamino]-phenyl}-piperazin-1-yl)-ethanol], for which the IC50 was under 100 nM at JAK2 (JAK2 Kinase Inhibition) and 100 to 1000 nM on ALK (ALK Kinase Inhibition).

Regarding `COc1cc(N2CCC(N3CCOCC3)CC2)ccc1Nc1ncc2ccc(-c3ccccc3N(CCF)S(C)(=O)=O)n2n1` [Example 1463, N-(2-Fluoro-ethyl)-N-(2-{2-[2-methoxy-4-(4-morpholin-4-yl-piperidin-1-yl)-phenylamino]-pyrrolo[2,1-f][1,2,4]triazin-7-yl}-phenyl)-methanesulfonamide], the IC50 on JAK2 (JAK2 Kinase Inhibition) and at ALK (ALK Kinase Inhibition) was under 100 nM throughout.

For `COc1ccccc1-c1ccc2cnc(Nc3ccc(N4CCC(CN5CCN(C)CC5)CC4)cc3)nn12` [Example 451, [7-(2-Methoxy-phenyl)-pyrrolo[2,1-f][1,2,4]triazin-2-yl]-{4-[4-(4-methyl-piperazin-1-ylmethyl)-piperidin-1-yl]-phenyl}-amine], the IC50 at JAK2 (JAK2 Kinase Inhibition) and at ALK (ALK Kinase Inhibition) was under 100 nM each time.

Turning to `COCc1ccc(-c2ccc3cnc(Nc4ccc(N5CCN(C)CC5)cc4)nn23)cc1` [Example 1499, [7-(4-Methoxymethyl-phenyl)-pyrrolo[2,1-f][1,2,4]triazin-2-yl]-[4-(4-methyl-piperazin-1-yl)-phenyl]-amine], the values for the IC50 on JAK2 (JAK2 Kinase Inhibition) and at ALK (ALK Kinase Inhibition) were under 100 nM and 100 to 1000 nM, respectively.

In the case of `COc1cc(N2CCC(F)(F)CC2)ccc1Nc1ncc2ccc(-c3ccccc3OC)n2n1` [Example 1470, [4-(4,4-Difluoro-piperidin-1-yl)-2-methoxy-phenyl]-[7-(2-methoxy-phenyl)-pyrrolo[2,1-f][1,2,4]triazin-2-yl]-amine], the values for the IC50 on JAK2 (JAK2 Kinase Inhibition) and on ALK (ALK Kinase Inhibition) were under 100 nM and 100 to 1000 nM, respectively.

In the case of `Clc1ncccc1-c1ccc2cnc(Nc3ccc(N4CCOCC4)cc3)nn12` [Example 1034, [7-(2-Chloro-pyridin-3-yl)-pyrrolo[2,1-f][1,2,4]triazin-2-yl]-(4-morpholin-4-yl-phenyl)-amine], the values for the IC50 on JAK2 (setting [1]) and on ALK (setting [2]) were under 100 nM and 1000 to 10000 nM, respectively.

Take `COc1ccc(Cl)cc1-c1ccc2cnc(Nc3ccc4ncccc4c3)nn12` [Example 173, [7-(5-Chloro-2-methoxy-phenyl)-pyrrolo[2,1-f][1,2,4]triazin-2-yl]-quinolin-6-yl-amine]: the IC50 on JAK2 (JAK2 Kinase Inhibition) is under 100 nM; on ALK (ALK Kinase Inhibition), 100 to 1000 nM.

For `COc1cc(CN2CCOCC2)ccc1Nc1ncc2ccc(-c3ccccc3N(C)S(C)(=O)=O)n2n1` [Example 1221, N-{2-[2-(2-Methoxy-4-morpholin-4-ylmethyl-phenylamino)-pyrrolo[2,1-f][1,2,4]triazin-7-yl]-phenyl}-N-methyl-methanesulfonamide], the IC50 at JAK2 (setting [1]) is 1000 to 10000 nM; at ALK (setting [2]), under 100 nM.

For `COc1cc2c(cc1Nc1ncc3ccc(-c4ccccc4OC)n3n1)C(=O)CC1(CCN(C)CC1)O2` [Example 1491], the IC50 is 100 to 1000 nM on JAK2 (JAK2 Kinase Inhibition) and under 100 nM at ALK (ALK Kinase Inhibition).

In the case of `CC(C)(C)OC(=O)N1CCC=C(c2ccc3cnc(Nc4ccc(C5CCN(CC(N)=O)CC5)cc4)nn23)C1` [Example 675, 5-{2-[4-(1-Carbamoylmethyl-piperidin-4-yl)-phenylamino]-pyrrolo[2,1-f][1,2,4]triazin-7-yl}-3,6-dihydro-2H-pyridine-1-carboxylic acid tert-butyl ester], the IC50 at JAK2 (setting [1]) was under 100 nM; at ALK (setting [2]) it was 1000 to 10000 nM.

As for `COc1ccc(-c2ccc3cnc(Nc4ccc(N5CCN(C)CC5)nc4)nn23)cn1` [Example 1109, [7-(6-Methoxy-pyridin-3-yl)-pyrrolo[2,1-f][1,2,4]triazin-2-yl]-[6-(4-methyl-piperazin-1-yl)-pyridin-3-yl]-amine], the IC50 is under 100 nM on JAK2 (setting [1]) and 100 to 1000 nM on ALK (setting [2]).

`CC(=O)Nc1cccc(Nc2ncc3ccc(-c4cccc(NS(C)(=O)=O)c4)n3n2)c1` [Example 1363, N-{3-[7-(3-Methanesulfonylamino-phenyl)-pyrrolo[2,1-f][1,2,4]triazin-2-ylamino]-phenyl}-acetamide]: the IC50 was under 100 nM on JAK2 (setting [1]) and 1000 to 10000 nM at ALK (setting [2]).

For `C[C@H](O)CN1CCN(c2ccc(Nc3ncc4ccc(-c5ccccc5NS(C)(=O)=O)n4n3)cc2)CC1` [Example 430, N-[2-(2-{4-[4-((S)-2-Hydroxy-propyl)-piperazin-1-yl]-phenylamino}-pyrrolo[2,1-f][1,2,4]triazin-7-yl)-phenyl]-methanesulfonamide], the IC50 at JAK2 (JAK2 Kinase Inhibition) was under 100 nM; at ALK (ALK Kinase Inhibition), 100 to 1000 nM.
